Tests used:
FKBP51 transcripts = assay: Whole genome microarray analysis of esophageal biopsy samples from EE patients treated with swallowed FP; format: in vivo, human; details: esophageal biopsies
Text: FIG. 1 depicts the identification of glucocorticoid-regulated genes in EE patients that respond to FP treatment. (A) Analysis of microarray data to identify glucocorticoid-regulated transcripts. RNA from distinct patient populations was subjected to chip analysis using Affymetrix Human Genome U 133 Plus 2.0 GeneChips®. The groups are composed of the following numbers of patients: normal (NL), n=14; EE, n=14; EE, FP responders (EE R), n=13; EE, FP non-responders, n=8. Using the average expression for each patient group, the subset of genes differentially regulated between normal (NL) and EE patients was identified by t-test (p<0.01). The subset of genes differentially regulated between normal patients and EE patients that respond to FP (EE R) was then identified by 2-fold change filter. Subsequently, the subset of genes differentially regulated between NL and EE patients was subtracted from those differentially regulated between NL and EE R. These transcripts were then subjected to ANOVA, p<0.01. […] The average expression level for each patient group (normal, EE, Flovent® (fluticasone propionate) responders, Flovent® non-responders) is expressed as fold-change compared to the normal patients. […] The transcript levels for the indicated gene for each patient population was quantified by real-time PCR and normalized to glyceraldehyde-3-phosphate dehydrogenase (GAPDH) levels. […]

FKBP51 in TE-7 cells = assay: FKBP51 induction in TE-7 esophageal cell line, western blot and real-time PCR; format: cell-based
Experimental: FIG. 3 depicts FKBP51 induction following glucocorticoid treatment. (A) Peripheral blood mononuclear cells (PBMCs) were isolated from a patient blood sample and cultured ex vivo. The cells were treated with the indicated concentration of FP for 24 h. RNA was isolated, cDNA synthesis was performed, and real-time PCR analysis was conducted. FKBP51 transcript levels were normalized to GAPDH levels. (B) Primary esophageal epithelial cells were cultured from the biopsy of an EE patient with active disease. Cells were treated or not with 10^−6 M FP for 24 h. Protein extracts were prepared and subjected to SDS-PAGE and western blot analysis for FKBP51 and actin (left). FKBP51 and actin levels were quantified by densitometry analysis. The ratio of FKBP51 to actin is shown (right). (C) TE-7 cells were treated with the indicated dose of FP for 24 h. Protein extracts were then prepared and subjected to SDS-PAGE and western blot analysis for FKBP51 and actin (top). Densitometry analysis was performed and the fold-change in the ratio of FKBP51 to actin expression is graphed (bottom). (D) TE-7 cells were treated for the indicated amount of time with 10^−7 M FP. RNA was isolated, cDNA synthesis was performed, and real-time PCR analysis to detect FKBP51 and GAPDH transcripts was done (left). In a separate experiment, protein extracts were prepared and then subjected to SDS-PAGE and western blot analysis for FKBP51 and actin (right, top). Following densitometry analysis, the fold-change in the ratio of FKBP51 to actin signal was graphed (right, bottom)*, p<0.05; **, p<0.01. To further study the role of FKBP51 in epithelial cells, the TE-7 esophageal cell line was used to understand the expression patterns of FKBP51 following FP treatment. […] The kinetics of FKBP51 Mrna and protein expression were examined following FP treatment. […] Similarly, FKBP51 protein levels in TE-7 cells increased in a time dependent manner, with maximum levels of protein observed by 24 h following treatment.

[1] = tested on: FKBP51 protein in primary esophageal epithelial cells; assay: FKBP51 protein in primary esophageal epithelial cells from an EE patient, western blot; format: cell-based, human; details: 10^-6 M FP, 24 h, FKBP51 to actin ratio
Experimental: (§1) FIG. 3 depicts FKBP51 induction following glucocorticoid treatment. (A) Peripheral blood mononuclear cells (PBMCs) were isolated from a patient blood sample and cultured ex vivo. The cells were treated with the indicated concentration of FP for 24 h. RNA was isolated, cDNA synthesis was performed, and real-time PCR analysis was conducted. FKBP51 transcript levels were normalized to GAPDH levels. (B) Primary esophageal epithelial cells were cultured from the biopsy of an EE patient with active disease. Cells were treated or not with 10^−6 M FP for 24 h. Protein extracts were prepared and subjected to SDS-PAGE and western blot analysis for FKBP51 and actin (left). FKBP51 and actin levels were quantified by densitometry analysis. The ratio of FKBP51 to actin is shown (right). (C) TE-7 cells were treated with the indicated dose of FP for 24 h. Protein extracts were then prepared and subjected to SDS-PAGE and western blot analysis for FKBP51 and actin (top). Densitometry analysis was performed and the fold-change in the ratio of FKBP51 to actin expression is graphed (bottom). (D) TE-7 cells were treated for the indicated amount of time with 10^−7 M FP. RNA was isolated, cDNA synthesis was performed, and real-time PCR analysis to detect FKBP51 and GAPDH transcripts was done (left). […]

eotaxin-3 promoter = assay: Eotaxin-3 promoter luciferase reporter in transfected TE-7 cells, dual luciferase assay; format: cell-based
Experimental: FIG. 5 depicts increased baseline FKBP51 levels impact glucocorticoid repression of IL-13-induced eotaxin-3 promoter activity. (A) Schematics of constructs used in this study. GRE, glucocorticoid response element. CMV, cytomegalovirus promoter. (B) Cells were transfected with Phrl-TK, pEotaxin-3, and Pcdna3.1 or Pfkbp51. Cells were then treated with IL-13 ([…]) and/or FP (10^−6 M) for 24 h. Protein lysates were then collected, and firefly and Renilla luciferase activity for each sample were quantified by dual luciferase assay (Promega). Eotaxin-3 promoter activity is expressed as the ratio of firefly to Renilla luciferase activity. **, p<0.01; ***, p<0.001.
(§2) Cells were transfected with Phrl-TK and pEotaxin-3 (A) or pEotaxin-3 3′UTR (B) for 48 h. Cells were then treated with IL-13 (100 ng/ml) and/or FP (10^−6 M) for 24 h. Protein lysates were then collected, and firefly and Renilla luciferase activity for each sample was quantified by dual luciferase assay (Promega). Eotaxin-3 promoter activity is expressed as the ratio of firefly to Renilla luciferase activity. **, p<0.01.
(§3) The contribution of the promoter and 3′ UTR sequences of eotaxin-3 to the control of its gene expression following IL-13 and FP treatment, was tested using TE-7 cells transiently transfected with a luciferase reporter construct. The cells were transfected with a luciferase reporter construct containing either 800 bp of the eotaxin-3 promoter 5′ of the firefly luciferase gene in the Pg13-Basic vector or a plasmid containing 200 bp of the eotaxin-3 3′ UTR downstream of the firefly luciferase gene in the Pg13-Promoter vector (FIG. 5A). The same cells were co-transfected with a plasmid containing Renilla luciferase under a constitutive promoter (Phrl-TK) that served as a control for transfection efficiency. Part of the observed decrease in IL-13 induced eotaxin-3 Mrna levels following FP treatment can be mediated through modulation of the promoter activity due to the presence of a putative glucocorticoid-responsive element (GRE) in this region (FIG. 5A).
To test whether increased FKBP51 levels impacted the FP-mediated decrease in IL-13-induced eotaxin-3 promoter activity, TE-7 cells were transfected with either empty vector (Pcdna3.1) or an expression construction that contained FKBP51 under the control of the CMV promoter (Pfkbp51, FIG. 5A) to simulate high baseline levels of FKBP51. […] However, when cells were transfected with the FKBP51 expression vector, the FP-mediated decrease in IL-13 induced eotaxin-3 promoter activity was abolished (FIG. 5B).

[2] = tested on: FKBP51, KRT7, H19 transcripts; assay: Real-time PCR analysis of glucocorticoid-regulated genes in patient esophageal biopsies; format: in vivo, human
Text: FIG. 2 depicts the verification of transcript levels of glucocorticoid-regulated genes by real-time PCR analysis. (A) Microarray data for three glucocorticoid-regulated genes. The average expression level for each patient group (normal, EE, Flovent® (fluticasone propionate) responders, Flovent® non-responders) is expressed as fold-change compared to the normal patients. (B) Real-time PCR analysis for three glucocorticoid-regulated genes. The transcript levels for the indicated gene for each patient population was quantified by real-time PCR and normalized to glyceraldehyde-3-phosphate dehydrogenase (GAPDH) levels. […] The expression pattern of three of the identified candidate genes was validated by real-time PCR analysis.

eotaxin-3 3' UTR = assay: Eotaxin-3 3' UTR luciferase reporter in transfected TE-7 cells, dual luciferase assay; format: cell-based; details: IL-13 100 ng/ml and/or FP 10^-6 M, 24 h, FIG. 6B
Experimental: as §2, §3

[3] = tested on: eotaxin-3 transcript in TE-7 cells; assay: IL-13-induced eotaxin-3 transcript levels in TE-7 cells, real-time PCR; format: cell-based; details: IL-13 100 ng/ml, 24 h
Experimental: (§4) FIG. 4 depicts IL-13 induced transcript levels of two representative genes are reversed by FP treatment. TE-7 cells were treated as indicated with IL-13 (100 ng/ml) and/or the indicated dose of FP for 24 h. RNA was isolated and cDNA synthesis was performed. Transcript levels of eotaxin-3 (A) and serpinb4 (B) were determined by real-time PCR analysis and normalized to GAPDH levels. *, p<0.05; **, p<0.01.
(§5) IL-13 signaling in esophageal epithelial cells is known to have a role in EE pathogenesis by inducing the EE transcriptome. […] When TE-7 cells are treated with IL-13, an increase in eotaxin-3 and serpinb4 transcript levels is observed (FIG. 4A, B).

[4] = tested on: FKBP51 transcript in peripheral blood mononuclear cells; assay: FKBP51 induction in PBMCs cultured ex vivo, real-time PCR; format: cell-based, human; details: all FP concentrations tested, 24 h, normalized to GAPDH
Experimental: as §1

[5] = tested on: serpinb4 transcript in TE-7 cells; assay: IL-13-induced serpinb4 transcript levels in TE-7 cells, real-time PCR; format: cell-based; details: IL-13 100 ng/ml, 24 h
Experimental: as §4, §5

[6] = average, FIG. 2B, real-time PCR

| Compound | increase in FKBP51 transcripts in FP-responders compared to control and active EE individuals (FKBP51 transcripts) [fold] | FKBP51 transcript levels in TE-7 cells over time (FKBP51 in TE-7 cells; 10^-7 M FP, real-time PCR) | time of maximum FKBP51 protein levels in TE-7 cells (FKBP51 in TE-7 cells; 10^-7 M FP, western blot) [h] | FKBP51 protein levels in TE-7 cells in response to FP dose (FKBP51 in TE-7 cells; various doses of FP, 24 h, western blot) | increase in FKBP51 protein in primary esophageal epithelial cells [1] | FP-mediated decrease in IL-13 induced eotaxin-3 promoter activity in cells transfected with FKBP51 expression vector (eotaxin-3 promoter; FKBP51 expression vector, IL-13 10 ng/ml, FP 10^-6 M, 24 h, FIG. 5B) | reduction of FP-mediated inhibition of IL-13-induced eotaxin-3 expression by FKBP51 overexpression (eotaxin-3 promoter; FKBP51 overexpression in TE-7 cells) [%] | IL-13-induced eotaxin-3 promoter activity upon concomitant FP treatment (eotaxin-3 promoter; IL-13 100 ng/ml, FP 10^-6 M, 24 h, FIG. 6A) | reduction of IL-13-induced eotaxin-3 promoter activity by concomitant FP (eotaxin-3 promoter; empty vector, IL-13 10 ng/ml, FP 10^-6 M, 24 h, FIG. 5B) [%] | FKBP51 levels in FP responders compared to normal patients [2, 6] [fold] | FKBP51 transcript levels in FP non-responder patients compared to normal patients [2, 6] [fold] | FKBP51, KRT7 and H19 transcript levels in FP responder patients compared to untreated patients ([2]; microarray and real-time PCR) | modulation of mRNA stability via eotaxin-3 3' UTR sequence (eotaxin-3 3' UTR) | IL-13 mediated increase in eotaxin-3 transcript levels on concomitant FP treatment ([3]; indicated doses of FP) | FKBP51 transcript levels in isolated PBMCs [4] | IL-13 mediated increase in serpinb4 transcript levels on concomitant FP treatment ([5]; indicated doses of FP) | increase in eotaxin-3 promoter activity upon IL-13 treatment (eotaxin-3 promoter; empty vector, IL-13 10 ng/ml, 24 h, FIG. 5B) [fold] | eotaxin-3 transcript levels on IL-13 treatment ([3]; TE-7 cells) | serpinb4 transcript levels on IL-13 treatment ([5]; TE-7 cells) |
| --- | --- | --- | --- | --- | --- | --- | --- | --- | --- | --- | --- | --- | --- | --- | --- | --- | --- | --- | --- |
| CCC(=O)O[C@]1(C(=O)SCF)[C@H](C)C[C@H]2[C@@H]3C[C@H](F)C4=CC(=O)C=C[C@]4(C)[C@@]3(F)[C@@H](O)C[C@@]21C [FP, S-fluoromethyl-6α,9-difluoro-11β-hydroxy-16α-methyl-3-oxoandrosta-1,4-diene-17β-carbothioate, 17-propionate] | 4 | increased by 4 h post treatment and were further increased by 8 h, after which no further increase was observed | ≤ 24 | dose-dependent increase | approximately 3 fold | abolished | 50 | decrease | 50 | 4 | 1.5 | increased transcript levels | did not show any modulation | decreased in a dose-dependent manner | significant increase | decreased in a dose-dependent manner |  |  |  |
| IL-13: cytokine used to induce eotaxin-3 and serpinb4 in TE-7 esophageal epithelial cells |  |  |  |  |  |  |  |  |  |  |  |  | did not show any modulation |  |  |  | 2 | increase | increase |
